In US6451736B1, “Substituted aromatic thiocarboxylic acid amides and their use as herbicides” (Bayer Aktiengesellschaft, priority 1994, dated 2002):

How the values were obtained:
Assay type in all cases: in vivo
[1] = tested on: Portulaca; experiment: Pre-emergence test/greenhouse; conditions: Table B, after three weeks
Protocol: (§1) To produce a suitable preparation of active compound, 1 part by weight of active compound is mixed with the stated amount of solvent, the stated amount of emulsifier is added and the concentrate is diluted with water to the desired concentration.
(§2) Seeds of the test plants are sown in normal soil and, after 24 hours, watered with the preparation of active compound. It is expedient to keep constant the amount of water per unit area. The concentration of the active compound in the preparation is of no importance, only the amount of active compound applied per unit area being decisive. After three weeks, the degree of damage to the plants is rated in % damage in comparison to the development of the untreated control. The figures denote:
(§3) 0%=no action (like untreated control)

[2] = tested on: Abuthilon; experiment: Pre-emergence test/greenhouse; conditions: Table B, after three weeks
Protocol: as §1, §2, §3

[3] = tested on: Chenopodium; experiment: Pre-emergence test/greenhouse; conditions: Table B, after three weeks
Protocol: as §1, §2, §3

[4] = tested on: Matricaria; experiment: Pre-emergence test/greenhouse; conditions: Table B, after three weeks
Protocol: as §1, §2, §3

[5] = tested on: Solanum; experiment: Pre-emergence test/greenhouse; conditions: Table B, after three weeks
Protocol: as §1, §2, §3

[6] = tested on: Maize; experiment: Pre-emergence test/greenhouse; conditions: Table B, after three weeks
Protocol: as §1, §2, §3

[7] = tested on: Amaranthus; experiment: Pre-emergence test/greenhouse; conditions: Table B, after three weeks
Protocol: as §1, §2, §3

[8] = tested on: Wheat; experiment: Pre-emergence test/greenhouse; conditions: Table B, after three weeks
Protocol: as §1, §2, §3

[9] = tested on: Abuthilon; experiment: Post-emergence test/greenhouse; conditions: Table C, after three weeks
Protocol: as §1
(§4) Test plants which have a height of 5-15 cm are sprayed with the preparation of active compound in such a way as to apply the particular amounts of active compound desired per unit area. After three weeks, the degree of damage to the plants is rated in % damage in comparison to the development of the untreated control.
(§5) 0%=no action (like intreated control)

[10] = tested on: Chenopodium; experiment: Post-emergence test/greenhouse; conditions: Table C, after three weeks
Protocol: as §1, §4, §5

[11] = tested on: Solanum; experiment: Post-emergence test/greenhouse; conditions: Table C, after three weeks
Protocol: as §1, §4, §5

[12] = tested on: Maize; experiment: Post-emergence test/greenhouse; conditions: Table C, after three weeks
Protocol: as §1, §4, §5

[13] = tested on: Amaranthus; experiment: Post-emergence test/greenhouse; conditions: Table C, after three weeks
Protocol: as §1, §4, §5

[14] = tested on: Veronica; experiment: Post-emergence test/greenhouse; conditions: Table C, after three weeks
Protocol: as §1, §4, §5

[15] = tested on: Wheat; experiment: Post-emergence test/greenhouse; conditions: Table C, after three weeks
Protocol: as §1, §4, §5

Q: Which results are given for `Cn1c(C(F)F)nn(-c2cc(F)c(C(N)=S)cc2F)c1=S` [Example 8]?
A: degree of damage, Portulaca ([1]; 60 g/ha): 95%; degree of damage, Abuthilon ([2]; 60 g/ha): 100%; degree of damage, Chenopodium ([3]; 60 g/ha): 100%; degree of damage, Matricaria ([4]; 60 g/ha): 95%; degree of damage, Solanum ([5]; 60 g/ha): 100%; degree of damage, Maize ([6]; 60 g/ha): 0%; degree of damage, Amaranthus ([7]; 60 g/ha): 100%; degree of damage, Wheat ([8]; 60 g/ha): 40%; degree of damage, Abuthilon ([9]; 60 g/ha): 100%; degree of damage, Chenopodium ([10]; 60 g/ha): 100%; degree of damage, Solanum ([11]; 60 g/ha): 100%; degree of damage, Maize ([12]; 60 g/ha): 30%; degree of damage, Amaranthus ([13]; 60 g/ha): 100%; degree of damage, Veronica ([14]; 60 g/ha): 100%; degree of damage, Wheat ([15]; 60 g/ha): 10%

Q: With `CCS(=O)(=O)Nc1cc(-n2nc3n(c2=O)CCCC3)c(F)cc1C(N)=S` [Example 1, 2-(2-fluoro-5-ethylsulphonylamino-4-thiocarbamoyl-phenyl)-5,6,7,8-tetrahydro-1,2,4-triazolo[4,3-a]pyridin-3(2H)-one] as the molecule, how does the “degree of damage, Portulaca” value ([1]; 125 g/ha) read?
A: 100%

Q: What about the “degree of damage, Abuthilon” value ([2]; 125 g/ha) of the same molecule?
A: 100%

Q: And the “degree of damage, Chenopodium” value ([3]; 125 g/ha)?
A: 100%

Q: What about the “degree of damage, Matricaria” value ([4]; 125 g/ha) of the same molecule?
A: 95%

Q: What about the “degree of damage, Solanum” value ([5]; 125 g/ha) of the same molecule?
A: 100%

Q: What about the “degree of damage, Maize” value ([6]; 125 g/ha) of the same molecule?
A: 0%

Q: And the “degree of damage, Amaranthus” value ([7]; 125 g/ha)?
A: 100%

Q: What about the “degree of damage, Wheat” value ([8]; 125 g/ha) of the same molecule?
A: 0%

Q: What about the “degree of damage, Abuthilon” value ([9]; 15 g/ha) of the same molecule?
A: 100%

Q: And the “degree of damage, Chenopodium” value ([10]; 15 g/ha)?
A: 95%

Q: What about the “degree of damage, Solanum” value ([11]; 15 g/ha) of the same molecule?
A: 100%

Q: And the “degree of damage, Maize” value ([12]; 15 g/ha)?
A: 50%

Q: What about the “degree of damage, Amaranthus” value ([13]; 15 g/ha) of the same molecule?
A: 95%

Q: What about the “degree of damage, Veronica” value ([14]; 15 g/ha) of the same molecule?
A: 100%

Q: And the “degree of damage, Wheat” value ([15]; 15 g/ha)?
A: 10%

Q: With `CCn1c(C(F)(F)F)nn(-c2cc(N(C)S(=O)(=O)CC)c(C(N)=S)cc2F)c1=O` [Example 16] as the molecule, how does the “degree of damage, Portulaca” value ([1]; 60 g/ha) read?
A: 80%

Q: What about the “degree of damage, Abuthilon” value ([2]; 60 g/ha) of the same molecule?
A: 95%

Q: And the “degree of damage, Chenopodium” value ([3]; 60 g/ha)?
A: 100%

Q: What about the “degree of damage, Matricaria” value ([4]; 60 g/ha) of the same molecule?
A: 90%

Q: What about the “degree of damage, Solanum” value ([5]; 60 g/ha) of the same molecule?
A: 80%

Q: What about the “degree of damage, Maize” value ([6]; 60 g/ha) of the same molecule?
A: 0%

Q: And the “degree of damage, Amaranthus” value ([7]; 60 g/ha)?
A: 20%

Q: And the “degree of damage, Wheat” value ([8]; 60 g/ha)?
A: 10%

Q: What about the “degree of damage, Abuthilon” value ([9]; 60 g/ha) of the same molecule?
A: 95%

Q: What about the “degree of damage, Chenopodium” value ([10]; 60 g/ha) of the same molecule?
A: 100%

Q: And the “degree of damage, Solanum” value ([11]; 60 g/ha)?
A: 100%

Q: And the “degree of damage, Maize” value ([12]; 60 g/ha)?
A: 60%

Q: What about the “degree of damage, Amaranthus” value ([13]; 60 g/ha) of the same molecule?
A: 100%

Q: And the “degree of damage, Veronica” value ([14]; 60 g/ha)?
A: 100%

Q: What about the “degree of damage, Wheat” value ([15]; 60 g/ha) of the same molecule?
A: 20%

Q: With `CCOc1cc(N2C(=O)C3CCCCN3C2=O)c(F)cc1C(N)=S` (stereo not drawn) [Example 47] as the molecule, how does the “degree of damage, Portulaca” value ([1]; 30 g/ha) read?
A: 100%

Q: And the “degree of damage, Abuthilon” value ([2]; 30 g/ha)?
A: 100%

Q: And the “degree of damage, Chenopodium” value ([3]; 30 g/ha)?
A: 100%

Q: What about the “degree of damage, Matricaria” value ([4]; 30 g/ha) of the same molecule?
A: 100%

Q: And the “degree of damage, Solanum” value ([5]; 30 g/ha)?
A: 100%

Q: And the “degree of damage, Maize” value ([6]; 30 g/ha)?
A: 0%

Q: What about the “degree of damage, Amaranthus” value ([7]; 30 g/ha) of the same molecule?
A: 95%

Q: And the “degree of damage, Wheat” value ([8]; 30 g/ha)?
A: 0%

Q: What about the “degree of damage, Abuthilon” value ([9]; 8 g/ha) of the same molecule?
A: 100%

Q: And the “degree of damage, Chenopodium” value ([10]; 8 g/ha)?
A: 95%

Q: And the “degree of damage, Solanum” value ([11]; 8 g/ha)?
A: 100%

Q: And the “degree of damage, Maize” value ([12]; 8 g/ha)?
A: 10%

Q: What about the “degree of damage, Amaranthus” value ([13]; 8 g/ha) of the same molecule?
A: 100%

Q: And the “degree of damage, Veronica” value ([14]; 8 g/ha)?
A: 100%

Q: What about the “degree of damage, Wheat” value ([15]; 8 g/ha) of the same molecule?
A: 10%

Q: How did the “degree of damage, Portulaca” value ([1]; 60 g/ha) turn out when `CCS(=O)(=O)Nc1cc(-n2nc(C(F)F)n(C)c2=O)c(F)cc1C(N)=S` [Example 9] was run?
A: 90%

Q: What about the “degree of damage, Abuthilon” value ([2]; 60 g/ha) of the same molecule?
A: 100%

Q: And the “degree of damage, Chenopodium” value ([3]; 60 g/ha)?
A: 100%

Q: What about the “degree of damage, Matricaria” value ([4]; 60 g/ha) of the same molecule?
A: 95%

Q: And the “degree of damage, Solanum” value ([5]; 60 g/ha)?
A: 100%

Q: What about the “degree of damage, Maize” value ([6]; 60 g/ha) of the same molecule?
A: 0%

Q: And the “degree of damage, Amaranthus” value ([7]; 60 g/ha)?
A: 100%

Q: What about the “degree of damage, Wheat” value ([8]; 60 g/ha) of the same molecule?
A: 0%

Q: And the “degree of damage, Abuthilon” value ([9]; 60 g/ha)?
A: 100%

Q: What about the “degree of damage, Chenopodium” value ([10]; 60 g/ha) of the same molecule?
A: 100%

Q: What about the “degree of damage, Solanum” value ([11]; 60 g/ha) of the same molecule?
A: 100%

Q: And the “degree of damage, Maize” value ([12]; 60 g/ha)?
A: 30%

Q: And the “degree of damage, Amaranthus” value ([13]; 60 g/ha)?
A: 100%

Q: What about the “degree of damage, Veronica” value ([14]; 60 g/ha) of the same molecule?
A: 100%

Q: What about the “degree of damage, Wheat” value ([15]; 60 g/ha) of the same molecule?
A: 10%

Q: `CCS(=O)(=O)Nc1cc(-n2nc(C(F)(F)F)n(C)c2=S)c(F)cc1C(N)=S` [Example 31] was tested. Which “degree of damage, Portulaca” value ([1]; 60 g/ha) did it give?
A: 100%

Q: And the “degree of damage, Abuthilon” value ([2]; 60 g/ha)?
A: 100%

Q: What about the “degree of damage, Chenopodium” value ([3]; 60 g/ha) of the same molecule?
A: 100%

Q: And the “degree of damage, Matricaria” value ([4]; 60 g/ha)?
A: 100%

Q: And the “degree of damage, Solanum” value ([5]; 60 g/ha)?
A: 100%

Q: And the “degree of damage, Maize” value ([6]; 60 g/ha)?
A: 0%

Q: And the “degree of damage, Amaranthus” value ([7]; 60 g/ha)?
A: 100%

Q: And the “degree of damage, Wheat” value ([8]; 60 g/ha)?
A: 0%

Q: And the “degree of damage, Abuthilon” value ([9]; 8 g/ha)?
A: 100%

Q: And the “degree of damage, Chenopodium” value ([10]; 8 g/ha)?
A: 90%

Q: What about the “degree of damage, Solanum” value ([11]; 8 g/ha) of the same molecule?
A: 100%

Q: What about the “degree of damage, Maize” value ([12]; 8 g/ha) of the same molecule?
A: 70%

Q: And the “degree of damage, Amaranthus” value ([13]; 8 g/ha)?
A: 100%

Q: What about the “degree of damage, Veronica” value ([14]; 8 g/ha) of the same molecule?
A: 100%

Q: What about the “degree of damage, Wheat” value ([15]; 8 g/ha) of the same molecule?
A: 0%
